According to patent US11478466B2, “Small molecule promoting osteoblast differentiation” (Cornell University, priority 2019, dated 2022):
Like-named read-outs stand apart in the source and are kept apart here.

Key:
[1] = test system: alkaline phosphatase (ALP); experiment: cells; conditions: Mus musculus, C2C12, 96 h
[2] = test system: alkaline phosphatase (ALP); conditions: 10 μM; for RFU Score (10 μM): 154-analog library, C2C12, duplicate; for RFU Score Threshold ≥ 800 / Fluorescence Z Score Threshold ≥ 10 / NPA Score Threshold ≥ 5.0 (normalized percent activation): primary screen, C2C12, 4 days; for RFU Score Threshold ≥ 800: Ex 450/Em 580 nm, rank in brackets not taken; for Fluorescence Z Score Threshold ≥ 10: Z score on DMSO control wells; for NPA Score Threshold ≥ 5.0 (normalized percent activation): normalized against rhBMP4 positive and DMSO negative controls

| SMILES | activation at 10 µM [1] | RFU Score (10 μM) [2] | RFU Score Threshold ≥ 800 [2] | Fluorescence Z Score Threshold ≥ 10 [2] | NPA Score Threshold ≥ 5.0 (normalized percent activation) [2] | activation at 10 µM ([1]; read-out: NPA Score Threshold ≥ 5.0 (normalized percent activation)) |
| --- | --- | --- | --- | --- | --- | --- |
| O=C(NCc1nnc2ccccn12)c1[nH]cnc1-c1ccccc1 [RU-0424533] | 11.5% | 607 |  |  |  |  |
| CC1CCN(C(=O)COc2ccccc2-c2[nH]cnc2-c2ccccc2)CC1 [RU-0228904] | 10.9% | 590 |  |  |  |  |
| Cc1cc(C)c2[nH]c(=O)c(CN3C[C@H](O)C[C@H]3C(=O)O)cc2c1 [RU-0424501] | 7.25% | 487 |  |  |  |  |
| O=C(Nc1cnc2n1CCCC2)c1[nH]cnc1-c1ccccc1 [RU-0424475] | 6.39% | 491 |  |  |  |  |
| CO[C@@H]1CCOC[C@H]1NC(=O)c1[nH]cnc1-c1ccccc1 [RU-0424483] | 7.37% | 491 |  |  |  |  |
| COc1ccc(-n2c(Cc3cccnc3)n[nH]c2=O)c(C)c1 [RU-0230205] |  |  | 1060 (8) | 19.99 (7) | Below Threshold |  |
| O=C(c1[nH]cnc1-c1ccccc1)N1CCCC(Nc2ccc(F)cc2)C1 (centres unmarked) [RU-0236307] | 6.76% | 473 |  |  |  |  |
| CN(C)C1=NC2(CCN(C(=O)c3[nH]cnc3-c3ccccc3)CC2)C(=O)N1 [RU-0424527] | 10.5% | 575 |  |  |  |  |
| CCN(C)Cc1cc2n(n1)CCN(C(=O)c1[nH]cnc1-c1ccccc1)C2 [RU-0424554] | 4.5% | 409 |  |  |  |  |
| Cc1cc(C)c2[nH]c(=O)c(CN3CCN(C)[C@@H]4CS(=O)(=O)C[C@@H]43)cc2c1 [RU-0424550] | 0.78% | 304 |  |  |  |  |
| CO[C@H]1CN(C(=O)c2[nH]cnc2-c2ccccc2)CC[C@H]1N [RU-0424467] | 7.99% | 508 |  |  |  |  |
| Cc1cc(C)c2[nH]c(=O)c(CN3CCC4(CCCNC4)C3)cc2c1 (centres unmarked) [RU-0227342] | 11% | 591 |  |  |  |  |
| Cc1ccc(-n2cc(CN3CCCC(Cn4ccnc4C)C3)cn2)cc1C (centres unmarked) [RU-0238394] |  |  | 914 (15) | 12.45 (19) |  | 5.54% |
| CO[C@@]12CC[C@H](O)C[C@@H]1N(Cc1cc3cc(C)cc(C)c3[nH]c1=O)CC2 [RU-0424528] | 9.03% | 538 |  |  |  |  |
| CN1CCC(Cc2noc(-c3[nH]cnc3-c3ccccc3)n2)CC1 [RU-0249023] | 0.4% | 293 |  |  |  |  |
| O=C(N[C@H]1CC[C@H](n2cnnc2)CC1)c1[nH]cnc1-c1ccccc1 [RU-0261757] | 7.99% | 508 |  |  |  |  |
| COc1ccc(-c2[nH]cnc2-c2ccccc2)cc1CN(C)C [RU-0231652] | 0.62% | 299 |  |  |  |  |
| O=C(c1[nH]cnc1-c1ccccc1)N1CCC(Cc2cccnc2)CC1 [RU-0424489] | 9.48% | 551 |  |  |  |  |
| Cc1cc(C)c2[nH]c(=O)c(C3CC(=O)Nc4[nH]nc(C(=O)O)c43)cc2c1 (centres unmarked) [RU-0424541] | 12.9% | 646 |  |  |  |  |
| CN(C)CC1(O)CCN(C(=O)c2[nH]cnc2-c2ccccc2)C1 (centres unmarked) [RU-0248829] | 1.52% | 325 |  |  |  |  |
| Cn1cnnc1Sc1ccc(-c2[nH]cnc2-c2ccccc2)o1 [RU-0424466] | 8.64% | 527 |  |  |  |  |
| O=C(c1[nH]cnc1-c1ccccc1)N1CCC2(CCCO2)CC1 [RU-0424507] | 2.99% | 366 |  |  |  |  |
| O=C(O)CCc1cc2n(n1)CCN(C(=O)c1[nH]cnc1-c1ccccc1)C2 [RU-0424555] | 5.68% | 443 |  |  |  |  |
| CN(C)C1CCN(C(=O)c2cccc(-c3[nH]cnc3-c3ccccc3)c2)C1 (centres unmarked) [RU-0424477] | 6.59% | 469 |  |  |  |  |
| CSc1ncc(C(=O)NCc2cc(C)cc3c(C)c(C)[nH]c23)cn1 [RU-0239453] |  |  | 809 (33) | Below Threshold | Below Threshold |  |
